ChEMBL document CHEMBL5625226, “Synthesis, computational and experimental pharmacological studies for (thio)ether-triazine 5-HT6R ligands with noticeable action on AChE/BChE and chalcogen-dependent intrinsic activity in search for new class of drugs against Alzheimer's disease” (Eur J Med Chem, 2023)

Experiments:
[1] = biological target: Acetylcholinesterase (Electrophorus electricus, UniProt O42275)
Description: Inhibition of electric eel AChE using acetylthiocholine iodide as substrate preincubated with compounds for 20 mins followed by substrate addition and measured after 5 mins by Ellman's method

[2] = tested on: HepG2; assay: cells; settings: Homo sapiens, HepG2, 1 h
Description: Neuroprotective activity against H202 induced oxidative stress in human HepG2 cells measured after 1 hr by DCFH-DA staining based analysis

[3] = tested on: SH-SY5Y; assay: cells; settings: Homo sapiens, 1 h
Description: Neuroprotective activity against H202 induced oxidative stress in human SH-SY5Y cells measured after 1 hr by DCFH-DA staining based analysis

[4] = biological target: Cholinesterase (Equus caballus, UniProt P81908)
Chain of Cholinesterase (P81908 whole entry): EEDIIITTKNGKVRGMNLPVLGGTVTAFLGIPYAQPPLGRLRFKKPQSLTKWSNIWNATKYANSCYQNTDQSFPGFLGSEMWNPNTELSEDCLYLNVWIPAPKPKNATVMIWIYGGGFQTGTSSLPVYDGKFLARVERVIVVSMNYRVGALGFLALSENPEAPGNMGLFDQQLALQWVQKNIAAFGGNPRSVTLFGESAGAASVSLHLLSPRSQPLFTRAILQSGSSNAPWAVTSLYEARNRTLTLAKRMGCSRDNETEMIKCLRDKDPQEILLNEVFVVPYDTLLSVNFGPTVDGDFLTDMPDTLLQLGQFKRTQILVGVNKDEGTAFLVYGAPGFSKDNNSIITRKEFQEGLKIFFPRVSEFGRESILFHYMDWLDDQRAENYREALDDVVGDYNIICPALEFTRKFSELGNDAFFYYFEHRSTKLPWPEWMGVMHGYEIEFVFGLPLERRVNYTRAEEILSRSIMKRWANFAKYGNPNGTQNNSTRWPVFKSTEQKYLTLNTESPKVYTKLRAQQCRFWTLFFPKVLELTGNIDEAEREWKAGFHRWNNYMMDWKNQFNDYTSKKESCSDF
Description: Inhibition of equine serum BChE using butyrylthiocholine iodide as substrate preincubated for 20 mins followed by substrate addition and measured after 5 mins by Ellman's method

[5] = biological target: 5-hydroxytryptamine receptor 2A (Homo sapiens, UniProt P28223); assay: biochemical
Chain of 5-hydroxytryptamine receptor 2A (P28223 whole entry): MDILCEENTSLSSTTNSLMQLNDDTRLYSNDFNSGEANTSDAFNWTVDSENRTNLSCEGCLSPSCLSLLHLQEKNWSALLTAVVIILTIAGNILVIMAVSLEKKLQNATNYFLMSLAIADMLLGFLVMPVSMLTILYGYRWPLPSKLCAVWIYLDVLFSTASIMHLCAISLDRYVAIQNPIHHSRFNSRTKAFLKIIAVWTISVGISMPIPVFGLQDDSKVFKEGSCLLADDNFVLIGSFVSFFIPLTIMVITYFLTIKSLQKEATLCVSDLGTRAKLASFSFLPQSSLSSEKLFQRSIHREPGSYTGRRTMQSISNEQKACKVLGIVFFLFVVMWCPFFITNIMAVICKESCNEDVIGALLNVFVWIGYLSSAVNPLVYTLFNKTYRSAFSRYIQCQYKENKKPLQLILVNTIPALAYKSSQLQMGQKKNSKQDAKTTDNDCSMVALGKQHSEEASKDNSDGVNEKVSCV

[6] = biological target: D(2) dopamine receptor (Homo sapiens, UniProt P14416); assay: biochemical
Chain of D(2) dopamine receptor (P14416 whole entry): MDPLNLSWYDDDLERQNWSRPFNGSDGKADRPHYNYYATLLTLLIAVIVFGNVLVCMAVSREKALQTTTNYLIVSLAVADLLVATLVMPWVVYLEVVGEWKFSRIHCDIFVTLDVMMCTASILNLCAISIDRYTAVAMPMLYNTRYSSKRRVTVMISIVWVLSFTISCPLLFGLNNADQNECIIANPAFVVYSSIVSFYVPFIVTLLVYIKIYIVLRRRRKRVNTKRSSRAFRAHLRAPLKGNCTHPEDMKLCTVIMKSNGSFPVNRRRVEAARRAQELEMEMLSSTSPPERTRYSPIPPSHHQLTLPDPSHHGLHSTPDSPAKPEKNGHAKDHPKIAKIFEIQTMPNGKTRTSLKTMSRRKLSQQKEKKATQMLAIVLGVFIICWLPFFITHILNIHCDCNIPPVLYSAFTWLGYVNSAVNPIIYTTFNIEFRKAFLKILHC

[7] = biological target: T1, 5-hydroxytryptamine receptor 6 (Homo sapiens, UniProt P50406); assay: biochemical
T1 sequence (P50406 whole entry): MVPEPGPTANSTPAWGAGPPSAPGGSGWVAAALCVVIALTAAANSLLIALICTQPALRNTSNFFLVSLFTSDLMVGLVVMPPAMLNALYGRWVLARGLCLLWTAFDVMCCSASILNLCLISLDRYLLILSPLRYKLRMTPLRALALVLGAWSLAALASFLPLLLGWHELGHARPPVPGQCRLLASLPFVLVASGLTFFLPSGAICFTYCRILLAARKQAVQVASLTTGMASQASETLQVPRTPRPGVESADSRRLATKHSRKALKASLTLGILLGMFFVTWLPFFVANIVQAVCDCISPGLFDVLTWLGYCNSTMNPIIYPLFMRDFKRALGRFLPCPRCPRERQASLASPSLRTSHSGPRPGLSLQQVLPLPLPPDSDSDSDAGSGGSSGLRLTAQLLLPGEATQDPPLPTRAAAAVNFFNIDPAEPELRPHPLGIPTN

[8] = biological target: 5-hydroxytryptamine receptor 7 (Homo sapiens, UniProt P34969); assay: biochemical
Chain of 5-hydroxytryptamine receptor 7 (P34969 whole entry): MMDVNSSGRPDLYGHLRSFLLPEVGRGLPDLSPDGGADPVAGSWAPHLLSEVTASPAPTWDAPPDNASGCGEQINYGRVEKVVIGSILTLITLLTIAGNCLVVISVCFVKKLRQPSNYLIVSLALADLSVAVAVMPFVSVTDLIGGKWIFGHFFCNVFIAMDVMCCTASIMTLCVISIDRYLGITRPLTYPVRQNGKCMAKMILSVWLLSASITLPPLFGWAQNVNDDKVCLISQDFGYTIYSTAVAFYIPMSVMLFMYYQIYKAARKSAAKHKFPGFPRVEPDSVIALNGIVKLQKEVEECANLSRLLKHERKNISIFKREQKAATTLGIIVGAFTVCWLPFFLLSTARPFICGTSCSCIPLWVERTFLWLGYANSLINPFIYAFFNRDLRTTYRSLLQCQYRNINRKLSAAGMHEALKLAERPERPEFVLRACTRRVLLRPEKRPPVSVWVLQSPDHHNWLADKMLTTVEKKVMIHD

[9] = biological target: T1, 5-hydroxytryptamine receptor 6; settings: 1321N1, filed as antagonist, dose 10.0 mM, time 30.0 min
[10] = cells; settings: Rattus norvegicus, Whole blood cell, 0.05 h
Description: Antiplatelet activity against rat whole blood assessed as inhibition of collagen induced platelet aggregation measured after 3 mins

Chain of Acetylcholinesterase (O42275 whole entry): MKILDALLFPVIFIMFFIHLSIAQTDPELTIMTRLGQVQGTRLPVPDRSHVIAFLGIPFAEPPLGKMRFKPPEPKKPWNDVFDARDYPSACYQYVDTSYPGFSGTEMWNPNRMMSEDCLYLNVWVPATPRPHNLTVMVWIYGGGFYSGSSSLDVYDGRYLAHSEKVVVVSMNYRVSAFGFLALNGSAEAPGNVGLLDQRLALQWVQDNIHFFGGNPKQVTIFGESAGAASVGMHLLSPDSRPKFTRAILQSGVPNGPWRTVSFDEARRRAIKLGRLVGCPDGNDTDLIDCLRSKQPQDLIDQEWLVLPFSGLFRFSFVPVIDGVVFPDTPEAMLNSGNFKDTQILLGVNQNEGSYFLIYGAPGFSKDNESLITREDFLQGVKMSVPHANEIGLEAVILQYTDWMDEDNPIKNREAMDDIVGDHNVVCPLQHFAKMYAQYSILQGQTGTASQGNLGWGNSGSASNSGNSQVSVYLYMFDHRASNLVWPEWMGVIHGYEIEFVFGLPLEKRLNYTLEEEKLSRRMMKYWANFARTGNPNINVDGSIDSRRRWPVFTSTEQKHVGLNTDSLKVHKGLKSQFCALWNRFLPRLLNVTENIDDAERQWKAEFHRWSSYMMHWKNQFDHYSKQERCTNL

Row | Ki [5] [nM] | Ki [6] [nM] | Ki [7] [nM] | Ki [8] [nM] | SMILES | further results
1 | 892 | 727 | 476 | 5920 | CN1CCN(c2nc(N)nc(C(C)(C)Sc3ccccc3Cl)n2)CC1 | 
2 | 573 | 797 | 79 | 5630 | CN1CCN(c2nc(N)nc(C(C)(C)Oc3ccccc3Cl)n2)CC1 | 
3 | 427 | 7270 | 127 | 2470 | CCC(Sc1ccccc1)c1nc(N)nc(N2CCN(C)CC2)n1 (racemic) | 
4 | 115 |  |  | 3320 | CCC(Sc1cccc(Cl)c1Cl)c1nc(N)nc(N2CCNCC2)n1 (racemic) | 
5 |  | 530 | 152 | 2870 | CC(Sc1ccc(Cl)c(Cl)c1)c1nc(N)nc(N2CCN(C)CC2)n1 (racemic) | 
6 |  | 971 | 9 | 6210 | CCCC(Sc1cc(Cl)ccc1Cl)c1nc(N)nc(N2CCN(C)CC2)n1 (racemic) | 
7 | 4820 |  | 414 | 8150 | CCC(Oc1ccccc1)c1nc(N)nc(N2CCNCC2)n1 (racemic) | IC50 [2]: 20 nM; IC50 [3]: 42100 nM
8 | 2150 | 879 |  | 2560 | CCC(Sc1cccc(Cl)c1Cl)c1nc(N)nc(N2CCN(C)CC2)n1 (racemic) | 

Second part, the molecule before the results:

Row | SMILES | Ki [5] [nM] | Ki [6] [nM] | Ki [7] [nM] | Ki [8] [nM] | further results
9 | CC(Oc1cc(Cl)cc(Cl)c1)c1nc(N)nc(N2CCN(C)CC2)n1 (stereo not drawn) |  |  |  |  | IC50 [1]: 3950 nM
10 | CCC(Oc1cc(Cl)ccc1Cl)c1nc(N)nc(N2CCN(C)CC2)n1 (stereo not drawn) |  |  |  |  | IC50 [1]: 11200 nM; IC50 [2]: 7400 nM; IC50 [3]: 81300 nM
11 | CC(Oc1ccc(Cl)c(Cl)c1)c1nc(N)nc(N2CCN(C)CC2)n1 (stereo not drawn) |  |  |  |  | IC50 [1]: 9520 nM
12 | CCCCC(Oc1cccc(Cl)c1Cl)c1nc(N)nc(N2CCN(C)CC2)n1 (stereo not drawn) |  |  |  |  | IC50 [2]: 13200 nM; IC50 [4]: 500 nM; IC50 [3]: 29900 nM
13 | COc1ccc(NS(=O)(=O)c2ccc(I)cc2)cc1N1CCN(C)CC1 |  |  |  |  | Emax [9]: 100%
14 | CC(Sc1cc(Cl)ccc1Cl)c1nc(N)nc(N2CCN(C)CC2)n1 (racemic) |  | 4780 | 169 | 61000 | IC50 [1]: 9190 nM
15 | CCC(Sc1ccc(Cl)c(Cl)c1)c1nc(N)nc(N2CCN(C)CC2)n1 (racemic) | 547 | 897 | 181 | 5160 | IC50 [1]: 4570 nM; IC50 [4]: 15000 nM
16 | CCCC(Sc1cc(Cl)cc(Cl)c1)c1nc(N)nc(N2CCN(C)CC2)n1 (racemic) | 500 | 663 | 74 | 8630 | 
17 | CCC(Oc1cccc(Cl)c1Cl)c1nc(N)nc(N2CCNCC2)n1 (racemic) | 118 |  | 179 | 4510 | IC50 [4]: 10000 nM
18 | CCC(Sc1cc(Cl)cc(Cl)c1)c1nc(N)nc(N2CCN(C)CC2)n1 (racemic) | 178 | 362 | 103 | 6040 | IC50 [4]: 9800 nM
19 | CCCCC(Sc1cccc(Cl)c1Cl)c1nc(N)nc(N2CCN(C)CC2)n1 (racemic) | 179 |  | 169 | 1800 | IC50 [4]: 9950 nM
20 | CCC(Oc1cc(Cl)ccc1Cl)c1nc(N)nc(N2CCNCC2)n1 (racemic) | 62 |  |  | 3720 | 
21 | CCC(Sc1cc(Cl)ccc1Cl)c1nc(N)nc(N2CCNCC2)n1 (racemic) | 188 |  |  | 5670 | 
22 | CCC(Sc1cc(Cl)ccc1Cl)c1nc(N)nc(N2CCN(C)CC2)n1 (racemic) | 551 | 1000 |  | 5140 | IC50 [4]: 12100 nM
23 | CC(Sc1cc(Cl)cc(Cl)c1)c1nc(N)nc(N2CCN(C)CC2)n1 (racemic) | 178 | 362 | 103 | 6040 | IC50 [1]: 5370 nM
24 | CC(=O)Oc1ccccc1C(=O)O [ASPIRIN] |  |  |  |  | IC50 [10]: 17400 nM
